{"source": "patent US12441723B2", "about": "“Pyrazole compounds, formulations thereof, and a method for using the compounds and/or formulations” (Rigel Pharmaceuticals, Inc., priority 2019, dated 2025)", "test": "Physical and chemical stability of salts of I-18, 1 week (XRPD, HPLC purity)", "format": "physicochemical", "settings": "for Area (%) of HPLC peak RRT 1.00: main peak; for Area (%) of HPLC peak RRT 1.17: peak = parent compound formed by hydrolysis; for Form change: XRPD; for Initial purity (area %): HPLC, before storage", "method": "The physical and chemical stability of the K salt, Arginine salt, Choline salt and Tris salt were evaluated under conditions of 25° C./60% RH and 40° C./75% RH for 1 week. Each sample was added into 3 mL glass vials, sealed by parafilm with several holes, and kept under tested condition. After one week, samples was taken for XRPD and HPLC purity test.", "key": {"[1]": {"settings": "25° C./60% RH, 1 week, listed as choline salt"}, "[2]": {"settings": "40° C./75% RH, 1 week, listed as choline salt"}, "[3]": {"settings": "Initial, listed as choline salt"}, "[4]": {"settings": "25° C./60% RH, 1 week, listed as potassium salt"}, "[5]": {"settings": "40° C./75% RH, 1 week, listed as potassium salt"}, "[6]": {"settings": "Initial, listed as potassium salt"}}, "note": "Structures can show the parent of a compound that is named as a salt.", "data": [{"compound": "CCO[C@H]1CC[C@H](n2cc(NC(=O)c3csc(-c4cnn(C(C)OP(=O)(O)O)c4)n3)c(-c3nc(F)ccc3F)n2)CC1", "note": "(stereo partly drawn) [I-111, 1-(4-(4-((3-(3,6-difluoropyridin-2-yl)-1-((1r,4r)-4-ethoxycyclohexyl)-1H-pyrazol-4-yl)carbamoyl)thiazol-2-yl)-1H-pyrazol-1-yl)ethyl dihydrogen phosphate choline salt]", "values": [{"measurement": "Area (%) of HPLC peak RRT 0.77", "setting": "[1]", "result": 0.04, "unit": "%"}, {"measurement": "Area (%) of HPLC peak RRT 1.35", "setting": "[1]", "result": 0.10, "unit": "%"}, {"measurement": "Area (%) of HPLC peak RRT 1.45", "setting": "[1]", "result": 0.07, "unit": "%"}, {"measurement": "Area (%) of HPLC peak RRT 1.71", "setting": "[1]", "result": 0.05, "unit": "%"}, {"measurement": "Area (%) of HPLC peak RRT 1.73", "setting": "[1]", "result": 0.46, "unit": "%"}, {"measurement": "HPLC purity change", "setting": "[1]", "result": "no HPLC purity decrease"}, {"measurement": "Area (%) of HPLC peak RRT 1.00", "setting": "[1]", "result": 98.66, "unit": "%"}, {"measurement": "Area (%) of HPLC peak RRT 1.17", "setting": "[1]", "result": 0.58, "unit": "%"}, {"measurement": "Purity/Initial purity (%)", "setting": "25° C./60% RH/1 week", "result": 100.0, "unit": "%"}, {"measurement": "Form change", "setting": "25° C./60% RH/1 week, listed as Choline salt", "result": "no form change and No"}, {"measurement": "Area (%) of HPLC peak RRT 0.77", "setting": "[2]", "result": 0.04, "unit": "%"}, {"measurement": "Area (%) of HPLC peak RRT 1.35", "setting": "[2]", "result": 0.14, "unit": "%"}, {"measurement": "Area (%) of HPLC peak RRT 1.45", "setting": "[2]", "result": 0.11, "unit": "%"}, {"measurement": "Area (%) of HPLC peak RRT 1.71", "setting": "[2]", "result": 0.08, "unit": "%"}, {"measurement": "Area (%) of HPLC peak RRT 1.73", "setting": "[2]", "result": 0.46, "unit": "%"}, {"measurement": "HPLC purity change", "setting": "[2]", "result": "a purity decrease was observed"}, {"measurement": "Area (%) of HPLC peak RRT 1.00", "setting": "[2]", "result": 97.81, "unit": "%"}, {"measurement": "Area (%) of HPLC peak RRT 1.17", "setting": "[2]", "result": 1.31, "unit": "%"}, {"measurement": "Form change", "setting": "40° C./75% RH/1 week, listed as Choline salt", "result": "no form change and No"}, {"measurement": "Initial purity (area %)", "setting": "listed as Choline salt", "result": 98.70, "unit": "area %"}, {"measurement": "Area (%) of HPLC peak RRT 1.35", "setting": "Initial", "result": "<0.03", "unit": "%"}, {"measurement": "Area (%) of HPLC peak RRT 0.77", "setting": "[3]", "result": 0.03, "unit": "%"}, {"measurement": "Area (%) of HPLC peak RRT 1.13", "setting": "[3]", "result": 0.06, "unit": "%"}, {"measurement": "Area (%) of HPLC peak RRT 1.45", "setting": "[3]", "result": 0.06, "unit": "%"}, {"measurement": "Area (%) of HPLC peak RRT 1.71", "setting": "[3]", "result": 0.06, "unit": "%"}, {"measurement": "Area (%) of HPLC peak RRT 1.73", "setting": "[3]", "result": 0.33, "unit": "%"}, {"measurement": "Area (%) of HPLC peak RRT 1.00", "setting": "[3]", "result": 98.70, "unit": "%"}, {"measurement": "Area (%) of HPLC peak RRT 1.17", "setting": "[3]", "result": 0.75, "unit": "%"}]}, {"compound": "CCO[C@H]1CC[C@H](n2cc(NC(=O)c3csc(-c4cnn(C(C)OP(=O)(O)O)c4)n3)c(-c3nc(F)ccc3F)n2)CC1", "note": "(stereo partly drawn) [I-108, potassium 1-(4-(4-((3-(3,6-difluoropyridin-2-yl)-1-((1r,4r)-4-ethoxycyclohexyl)-1H-pyrazol-4-yl)carbamoyl)thiazol-2-yl)-1H-pyrazol-1-yl)ethyl hydrogen phosphate]", "values": [{"measurement": "Area (%) of HPLC peak RRT 1.14", "setting": "25° C./60% RH, 1 week", "result": "<0.04", "unit": "%"}, {"measurement": "Area (%) of HPLC peak RRT 1.40", "setting": "25° C./60% RH, 1 week", "result": 0.25, "unit": "%"}, {"measurement": "Area (%) of HPLC peak RRT 1.44", "setting": "25° C./60% RH, 1 week", "result": 0.30, "unit": "%"}, {"measurement": "Area (%) of HPLC peak RRT 1.70", "setting": "25° C./60% RH, 1 week", "result": 0.27, "unit": "%"}, {"measurement": "Area (%) of HPLC peak RRT 1.72", "setting": "25° C./60% RH, 1 week", "result": 0.78, "unit": "%"}, {"measurement": "Area (%) of HPLC peak RRT 1.81", "setting": "25° C./60% RH, 1 week", "result": "<0.04", "unit": "%"}, {"measurement": "HPLC purity change", "setting": "25° C./60% RH, 1 week, listed as K salt", "result": "slight purity decrease"}, {"measurement": "Area (%) of HPLC peak RRT 1.00", "setting": "[4]", "result": 96.26, "unit": "%"}, {"measurement": "Area (%) of HPLC peak RRT 1.17", "setting": "[4]", "result": 2.14, "unit": "%"}, {"measurement": "Form change", "setting": "25° C./60% RH/1 week, listed as K salt", "result": "no form change and No"}, {"measurement": "Area (%) of HPLC peak RRT 1.14", "setting": "40° C./75% RH, 1 week", "result": 0.05, "unit": "%"}, {"measurement": "Area (%) of HPLC peak RRT 1.40", "setting": "40° C./75% RH, 1 week", "result": 0.39, "unit": "%"}, {"measurement": "Area (%) of HPLC peak RRT 1.44", "setting": "40° C./75% RH, 1 week", "result": 0.24, "unit": "%"}, {"measurement": "Area (%) of HPLC peak RRT 1.70", "setting": "40° C./75% RH, 1 week", "result": 0.24, "unit": "%"}, {"measurement": "Area (%) of HPLC peak RRT 1.72", "setting": "40° C./75% RH, 1 week", "result": 0.83, "unit": "%"}, {"measurement": "Area (%) of HPLC peak RRT 1.81", "setting": "40° C./75% RH, 1 week", "result": 0.04, "unit": "%"}, {"measurement": "HPLC purity change", "setting": "40° C./75% RH, 1 week, listed as K salt", "result": "slight purity decrease"}, {"measurement": "Area (%) of HPLC peak RRT 1.00", "setting": "[5]", "result": 96.40, "unit": "%"}, {"measurement": "Area (%) of HPLC peak RRT 1.17", "setting": "[5]", "result": 1.80, "unit": "%"}, {"measurement": "Form change", "setting": "40° C./75% RH/1 week, listed as K salt", "result": "a form change was observed and Yes"}, {"measurement": "Initial purity (area %)", "setting": "listed as K salt", "result": 97.27, "unit": "area %"}, {"measurement": "Area (%) of HPLC peak RRT 1.14", "setting": "Initial", "result": "<0.04", "unit": "%"}, {"measurement": "Area (%) of HPLC peak RRT 1.40", "setting": "Initial", "result": 0.23, "unit": "%"}, {"measurement": "Area (%) of HPLC peak RRT 1.44", "setting": "Initial", "result": 0.21, "unit": "%"}, {"measurement": "Area (%) of HPLC peak RRT 1.70", "setting": "Initial", "result": 0.18, "unit": "%"}, {"measurement": "Area (%) of HPLC peak RRT 1.72", "setting": "Initial", "result": 0.77, "unit": "%"}, {"measurement": "Area (%) of HPLC peak RRT 1.81", "setting": "Initial", "result": "<0.04", "unit": "%"}, {"measurement": "Area (%) of HPLC peak RRT 1.00", "setting": "[6]", "result": 97.27, "unit": "%"}, {"measurement": "Area (%) of HPLC peak RRT 1.17", "setting": "[6]", "result": 1.33, "unit": "%"}]}]}
